One test has as its target T1, APOL1 G2 (Homo sapiens, UniProt O14791, DEL388-389).
T1 construct: expressed in transfected cells; host or cells: HEK293 T-REx clonal line stably expressing GCaMP6f (HEK T-REx/GCaMP6f/APOL1 G2 K6.3), doxycycline induced
T1 sequence (O14791 with tags, fused parts or gaps DEL388-389): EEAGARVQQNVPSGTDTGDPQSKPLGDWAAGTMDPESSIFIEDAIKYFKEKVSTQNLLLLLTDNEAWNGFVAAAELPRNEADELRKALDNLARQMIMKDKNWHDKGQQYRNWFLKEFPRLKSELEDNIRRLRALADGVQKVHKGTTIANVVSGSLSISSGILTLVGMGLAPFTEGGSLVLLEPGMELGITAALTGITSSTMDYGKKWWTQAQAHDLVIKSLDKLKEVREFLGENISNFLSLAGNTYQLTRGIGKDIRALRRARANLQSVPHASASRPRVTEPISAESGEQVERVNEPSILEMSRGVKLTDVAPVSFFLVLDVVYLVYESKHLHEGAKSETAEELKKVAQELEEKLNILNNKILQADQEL
Kind of test: APOL1-mediated calcium transport (calcium influx) assay, HEK T-REx/GCaMP6f/APOL1 G2 K6.3 cells, FLIPR TETRA. Type of test: cell-based. As to conditions: prevention of calcium influx; geometric mean of at least 2 assay runs; † = average of a technical replicate from a single assay run. In short, it runs like this:
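A HEK293 T-REx clone stably expressing GCaMP6f had APOL1 G2 induced with doxycycline (20 ng/mL solution added) for 6 h. Cells were then washed into Ca2+-free Tyrode's buffer (pH 7.4) and preincubated with compounds (duplicate 8-point) for 10 min at room temperature. Ca2+ injection to 5 mM final produced FLIPR GCaMP fluorescence, giving AC50 for influx inhibition (geometric mean, ≥2 runs).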

Test [1] has as its system HEK293 cells overexpressing APOL1 G2. Kind of test: APOL1 G2 HEK293 cell rescue assay (reversal of cell death caused by overexpression of APOL1). The class given is cell-based. Particulars: Homo sapiens, HEK293, HEK293 overexpressing APOL1 G2; geometric mean of at least 2 assay runs; † = single assay run. In short, it runs like this:
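EC50 is the half-maximal effective concentration for reversing cell death driven by APOL1 G2 overexpression in HEK293 cells. Reported as geometric mean of at least 2 runs on separate days, each run averaging duplicate wells per plate; some values from a single run.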

pEC50: −log10 of the molar value.

In patent publication US12344610B2, “APOL1 inhibitors and methods of use” (Maze Therapeutics, Inc., priority 2022, dated 2025) one finds AC50 and EC50 data, which are given here for one compound.

The term AC50 denotes the concentration giving half of the maximal activity seen. A word on the pEC50: it is the EC50 on a negative log10 scale, so that one unit is a factor of ten. `C[C@]1(O)C[C@@H](n2c(=O)[nH]c3cc(OCCN4CCC5(CC4)C(=O)Nc4ccc(C#N)cc45)cc(C(F)(F)F)c32)C1` [Compound 470, 2-oxo-1′-[2-({2-oxo-1-[(cis)-3-hydroxy-3-methylcyclobutyl]-7-(trifluoromethyl)-2,3-dihydro-1H-1,3-benzodiazol-5-yl}oxy)ethyl]-1,2-dihydrospiro[indole-3,4′-piperidine]-5-carbonitrile]: at APOL1 G2, the concentration at half-maximal activity (AC50) is 1110 nM. Moreover, in test [1], the pEC50 is 6.75.
